Experimental data taken from EP1149907A1, “EDG8 receptor, its preparation and use” (Aventis Pharma Deutschland GmbH, priority 2000, dated 2001).

Legend:
Assay in all cases: FLIPR assay of intracellular Ca2+ mobilization in transiently transfected CHO cells
[1] = test system: human EDG8, SEQ ID NO. 2; type: cell-based; conditions: for increase in intracellular Ca2+ ([Ca2+]i): CHO cells transiently transfected with EDG8 and G-protein α subunits G16 and Gqi5, lipids applied at 10, 100 and 1000 nM (Fig.3)
Experimental: Fig.2 depicts measurement of the intracellular Ca2+ concentration, mediated by S1P via the different S1P-receptors EDG1, 3, 5, 6 and the putative S1P-receptor EDG8, cotransfected in CHO cells with empty vector DNA as a control or various G-protein α subunits. Intracellular Ca2+ concentrations were recorded as real time measurements using the Fluorescence plate imaging reader (FLIPR, Molecular Devices). […] As already known for a large number of Gq-coupled receptors, coexpression of Gaq augments the EDG1 and 5-mediated Ca2+-release as compared with the Ca2+ signal induced by stimulation of endogeneous Gaq. […] The reason for this discrepancy could be the cellular background, as Yamazaki Y. et al. (2000) reported that the Ca2+ signal can be completely abolished in the presence of pertussis toxin (PTX), indicating the involvement of Gi-type G-proteins. In this case the Ca2+ signal would be elicited by bg, released from activated Gaibg heterotrimers. The Gαi-induced Ca2+ signals are known to be much smaller in intensity as compared with the Ca2+ signals induced by bona-fide Gq-linked receptors (Kostenis et al., 1997a; Kostenis et al., 1997b). It may be that detection of such Ca2+ concentrations is beyond the sensitivity of the FLIPR system. […] To check, whether the EDG8 receptor also reacts to related lysophospholipid mediators, we examined the abilities of lysophosphatidic acid (LPA), dihydrosphingosin 1-phosphate (DHS1P), sphingosylphosphorylcholine (SPC) and lysophosphatidylcholine (LPC) to increase intracellular Ca2+ in CHO cells transiently transfected with the EDG8 receptor and the G-protein α subunits G16 and Gqi5 (Fig.3).
Fig.2: Mobilization of intracellular Ca^2+ by S1P mediated by the EDG1, 3, 5 and 8 receptor in CHO cells, cotransfected with empty vector DNA as a control or the indicated G-protein α subunits. Agonist-mediated changes of intracellular Ca^2+ were measured with the FLIPR using the Ca^2+-sensitive dye FLUO4. Fluorescence of transfected cells loaded with FLUO4 was recorded before and after addition of S1P, applied in the indicated concentrations. Data are expressed as means of quadruplicate determinations in a single experiment. An additional experiment gave similar results.
Fig.3: Effects of S1P, LPA and related lysophospholipid mediators on EDG8-mediated increase in intracellular Ca^2+ measured with the FLIPR as described in the legend of […]. The different lipids were applied in concentrations of 10, 100 and 1000 nM, respectively. Data are means of quadruplicate determinations of a representative experiment. Two additional experiments gave similar results.
CHO-K1 cells were grown in basal ISCOVE medium supplemented with 10% fetal bovine serum at 37°C in a humidified 5% CO2 incubator. For transfections, 2 x 10^5 cells were seeded into 35-mm dishes. About 24 hr later cells were transiently transfected at 50-80% confluency with the indicated receptor and G-protein constructs (1µg of plasmid DNA each) using the Lipofectamine transfection reagent and the supplied protocol (GIBCO). 18-24 hr after transfection cells were seeded into 96well plates at a density of 50.000 cells per well and cultured for 18-24 additional hr until used in the functional FLIPR assays. The cDNA for Gα16 was cloned from TF1 cells by RT-PCR and ligated into the pCDNA1.1 mammalian expression vector (Invitrogen). Murine wild type Gαq was cloned from cells by RT-PCR and inserted into the BamHI-NsiI-sites of pCDNA1.1. To create the C-terminally modified Gαqi5 subunit, in which the last five aa of wt Gαq were replaced with the correspoding Gαi sequence, a 175-bp Bg/II-NsiI fragment was replaced, in a two piece ligation, with a synthetic DNA fragment, containing the desired codon changes. The correctness of all PCR-derived sequences was verified by sequencing in both directions.
Twenty-four hours after transfection, cells were splitted into 96-well, black-wall microplates (Corning) at a density of 50,000 cells per well. […]

[2] = test system: EDG6; type: cell-based, human; conditions: CHO cells transfected with EDG6, no cotransfected G-protein α subunit
Experimental: (§1) Fig.2 depicts measurement of the intracellular Ca2+ concentration, mediated by S1P via the different S1P-receptors EDG1, 3, 5, 6 and the putative S1P-receptor EDG8, cotransfected in CHO cells with empty vector DNA as a control or various G-protein α subunits. Intracellular Ca2+ concentrations were recorded as real time measurements using the Fluorescence plate imaging reader (FLIPR, Molecular Devices). […] As already known for a large number of Gq-coupled receptors, coexpression of Gaq augments the EDG1 and 5-mediated Ca2+-release as compared with the Ca2+ signal induced by stimulation of endogeneous Gaq. […] The reason for this discrepancy could be the cellular background, as Yamazaki Y. et al. (2000) reported that the Ca2+ signal can be completely abolished in the presence of pertussis toxin (PTX), indicating the involvement of Gi-type G-proteins. In this case the Ca2+ signal would be elicited by bg, released from activated Gaibg heterotrimers. The Gαi-induced Ca2+ signals are known to be much smaller in intensity as compared with the Ca2+ signals induced by bona-fide Gq-linked receptors (Kostenis et al., 1997a; Kostenis et al., 1997b). It may be that detection of such Ca2+ concentrations is beyond the sensitivity of the FLIPR system. […]

[3] = test system: EDG1; type: cell-based, human; conditions: CHO cells transfected with EDG1, no cotransfected G-protein α subunit (Fig.2)
Experimental: as §1
(§2) Fig.2: Mobilization of intracellular Ca^2+ by S1P mediated by the EDG1, 3, 5 and 8 receptor in CHO cells, cotransfected with empty vector DNA as a control or the indicated G-protein α subunits. Agonist-mediated changes of intracellular Ca^2+ were measured with the FLIPR using the Ca^2+-sensitive dye FLUO4. Fluorescence of transfected cells loaded with FLUO4 was recorded before and after addition of S1P, applied in the indicated concentrations. Data are expressed as means of quadruplicate determinations in a single experiment. […]

[4] = test system: EDG3; type: cell-based, human; conditions: CHO cells transfected with EDG3, no cotransfected G-protein α subunit (Fig.2)
Experimental: as §1, §2

[5] = test system: EDG5; type: cell-based, human; conditions: CHO cells transfected with EDG5, no cotransfected G-protein α subunit (Fig.2)
Experimental: as §1, §2

## CCCCCCCCCCCCCCC[C@@H](O)[C@@H](N)COP(=O)(O)O [DHS1P, dihydrosphingosin 1-phosphate]
[1]
  increase in intracellular Ca2+ ([Ca2+]i): evoked [Ca2+]i increases in concentrations of 100 and 1000 nM

## CCCCCCCC/C=C\CCCCCCCC(=O)OCC(O)COP(=O)(O)O (centres unmarked) [LPA, lysophosphatidic acid]
[1]
  increase in intracellular Ca2+ ([Ca2+]i): evoked [Ca2+]i increases in concentrations of 100 and 1000 nM

## CCCCCCCCCCCCC/C=C/[C@@H](O)[C@@H](N)COP(=O)(O)O [S1P, sphingosin 1-phosphate]
[2]
  mobilization of intracellular Ca2+: failed to detect a significant Ca2+ increase above basal levels
[3]
  mobilization of intracellular Ca2+: elicited intracellular Ca2+ signals
[4]
  mobilization of intracellular Ca2+: elicited intracellular Ca2+ signals
[5]
  mobilization of intracellular Ca2+: elicited intracellular Ca2+ signals
[1]; CHO cells cotransfected with EDG8 and Gα16 or Gαqi5 (Fig.2)
  mobilization of intracellular Ca2+: gained the ability to mobilize Ca2+
[1]; CHO cells transfected with EDG8, no cotransfected G-protein α subunit (Fig.2)
  mobilization of intracellular Ca2+: did not release intracellular Ca2+
[1]
  increase in intracellular Ca2+ ([Ca2+]i): most potent activator of EDG8

## CCCCCCCCCCCCC/C=C/[C@@H](O)[C@@H](N)COP(=O)([O-])OCC[N+](C)(C)C [SPC, sphingosylphosphorylcholine]
[1]
  increase in intracellular Ca2+ ([Ca2+]i): failed to generate any significant response in concentrations up to 1 µM

## lysophosphatidylcholine [LPC]
[1]
  increase in intracellular Ca2+ ([Ca2+]i): failed to generate any significant response in concentrations up to 1 µM
